The results in this text go back to ChEMBL document CHEMBL1201862, “PubChem BioAssay data set” (2004).

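A five-concentration, 48-hour dose response in 96-well plates underlies each endpoint, interpolated linearly between surrounding concentrations. GI50: concentration for 50% inhibition of growth.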 Activity calls are given as the source filed them. Rule as the data show it: active = GI50 up to about 1.1 µM and inactive = higher.

Common to all, as to assay: NCI anticancer screen, dose series, 48 h
Assay [1] has as its system A498.
Assay [2] concerns A549.
Assay [3] has as its system ACHN.
The subject of assay [4] is CCRF-CEM.
Assay [5] deals with EKVX.
The test system of assay [6] is HCT-116.
In assay [7] the test system is HOP-92.
Assay [8] concerns HT-29.
Assay [9] has as its system NCI-H522.
Assay [10] deals with SF-268.
Assay [11] deals with SF-295.
Assay [12] concerns SK-MEL-28.
Assay [13] has as its system SK-MEL-2.
Assay [14] relates to SN12C.
For assay [15], the system named is SK-OV-3.
For assay [16], the system named is SR.

Take `COc1cc2c(c(OC)c1OC)-c1ccc(OC)c(=O)cc1[C@@H](N(C)C=O)CC2`: the GI50 in [1] is 0.0209 µM (active); in [2], 0.0246 µM (active); in assay [3], 0.0802 µM (active); in [4], 0.0164 µM (active); in [5], 9.2 µM (inactive); in assay [6], 0.0173 µM (active). For the same molecule, the GI50 in [7] is 0.0137 µM (active); in assay [8], 0.0156 µM (active); in assay [9], 0.015 µM (active); in assay [10] it was 0.0219 µM (active); in [11], 0.0146 µM (active); in assay [12], < 0.01 µM (active). Moreover, the GI50 is 0.0135 µM (active) in [13] and 0.0329 µM (active) in assay [14].
`COc1ccc(OC)c(NCC#N)c1`: the GI50 in assay [1], in assay [2], in assay [3], in assay [4], in assay [5] and in assay [6] was > 100 µM (inactive) in each case. For the same molecule, the GI50 in assay [7], in [8], in [9], in assay [10], in assay [11] and in [12] was > 100 µM (inactive) each time. Also, the GI50 in assay [13], in assay [15] and in [14] was > 100 µM (inactive) each time.
With `C[P+]1(c2ccccc2)CCCCC1`, the GI50 in assay [1], in [2], in assay [3], in assay [4], in assay [5] and in assay [8] was > 100 µM (inactive) each time. The GI50 in assay [10], in [11], in assay [12], in assay [13], in assay [15] and in assay [14] was > 100 µM (inactive) throughout.
Turning to `C=CCCC12CCCC(=O)C1Sc1ccc3ccccc3c12` (configuration not stated), the GI50 was 13.1 µM (inactive) in assay [1]; 10.2 µM (inactive) in [2]; 24.8 µM (inactive) in assay [3]; 17.7 µM (inactive) in assay [4]; 21.6 µM (inactive) in assay [5]; 20.1 µM (inactive) in assay [8]. The GI50 was 15 µM (inactive) in assay [9]; 31.3 µM (inactive) in [10]; 19.4 µM (inactive) in assay [11]; 20.7 µM (inactive) in [12]; 13.4 µM (inactive) in [13]; 21.1 µM (inactive) in assay [15]. Besides, the GI50 in assay [14] is 14.6 µM (inactive).
In the case of `OCC1OC(c2nc(C3=NCCCN3)cs2)C(O)C1O` (configuration not stated), the GI50 in [1], in assay [2], in [3], in [4], in [5] and in assay [6] was > 100 µM (inactive) throughout. In addition, the GI50 in assay [7] was > 100 µM (inactive); in assay [8], > 100 µM (inactive); in assay [9], > 100 µM (inactive); in assay [10], > 100 µM (inactive); in [11], > 10 µM (inactive); in assay [12], > 100 µM (inactive). Besides, the GI50 in [13], in assay [15] and in [14] was > 100 µM (inactive) in each case.
Turning to `Cl[Si]1(Cl)Oc2ccccc2O[Si](Cl)(Cl)Oc2ccccc2O1`, the GI50 is 36.2 µM (inactive) in assay [1]; 14.3 µM (inactive) in assay [2]; 15.8 µM (inactive) in assay [3]; 1.45 µM (inactive) in assay [4]; 31 µM (inactive) in assay [5]; 33.2 µM (inactive) in assay [6]. For the same molecule, the GI50 in assay [7] was 17.7 µM (inactive); in assay [8], 17 µM (inactive); in assay [9] it was 1.53 µM (inactive); in [10], 15 µM (inactive); in assay [11], 31.3 µM (inactive); in assay [12], 33.3 µM (inactive). Also, the GI50 in assay [13] is 20.5 µM (inactive); in [15], 54.3 µM (inactive); in assay [14], 6.7 µM (inactive).
As for `O=c1c2cc(Br)ccc2nc(CCl)n1-c1ccc(O)c([N+](=O)[O-])c1`, the GI50 is 20.1 µM (inactive) in [1]; 22.4 µM (inactive) in [2]; 26.4 µM (inactive) in assay [3]; 22.4 µM (inactive) in assay [4]; 17.5 µM (inactive) in assay [5]; 29.2 µM (inactive) in assay [7]. For the same molecule, the GI50 in assay [8] was 27.7 µM (inactive); in assay [9], 18.8 µM (inactive); in [10] it was 20.8 µM (inactive); in assay [11] it was 16.3 µM (inactive); in [12], 17.6 µM (inactive); in [13], 16 µM (inactive). Moreover, the GI50 in assay [15] is 37.8 µM (inactive); in [14], 18.8 µM (inactive).
Regarding `c1ccc2c(c1)N=C(c1ccc3ccccc3c1)CC(c1cccc3ccccc13)S2` (configuration not stated), the GI50 in [1] was 27.5 µM (inactive); in [2] it was 48 µM (inactive); in assay [3] it was 38.5 µM (inactive); in assay [4], 12.6 µM (inactive); in assay [5] it was 61.4 µM (inactive); in [8], 30.2 µM (inactive). The GI50 in [9] was 24.3 µM (inactive); in assay [10] it was 48.3 µM (inactive); in assay [11], 47.1 µM (inactive); in assay [12] it was 83.4 µM (inactive); in [13] it was > 100 µM (inactive); in assay [15], > 100 µM (inactive). The GI50 in assay [14] is 59.3 µM (inactive).
Take `C/C=C(\C)c1cc(O)c(C)c2c1Oc1cc(O)c(Cl)c(C)c1C(=O)O2`: the GI50 in assay [2] is 31.6 µM (inactive); in [3] it was 22.2 µM (inactive); in assay [5], 26.8 µM (inactive); in assay [6] it was > 10 µM (inactive); in assay [8], 19.2 µM (inactive); in assay [9] it was 19.4 µM (inactive). For the same molecule, the GI50 in [10] is 30.5 µM (inactive); in assay [11], 16.7 µM (inactive); in assay [12] it was 22.4 µM (inactive); in assay [13], 21.5 µM (inactive); in [14], 16.6 µM (inactive); in [16] it was 23.8 µM (inactive).
Turning to `CN(C)c1nc(N(C)c2ccccc2)[s+]s1`, the GI50 in assay [1] was 50.8 µM (inactive); in [2], 53.3 µM (inactive); in [3], > 100 µM (inactive); in assay [4], 35.7 µM (inactive); in assay [5], > 100 µM (inactive); in assay [6], 41.7 µM (inactive). Further, the GI50 in assay [7] was > 100 µM (inactive); in [8], 89.5 µM (inactive); in assay [9], > 100 µM (inactive); in [10] it was 63.5 µM (inactive); in assay [11], 78.3 µM (inactive); in [12], 64.3 µM (inactive). Besides, the GI50 was > 100 µM (inactive) in assay [13], > 100 µM (inactive) in assay [15] and 44.8 µM (inactive) in assay [14].
Take `CC(C)N(C(=O)C12C3C4C5(C#N)C3C1(C#N)C5C42C#N)C(C)C` (configuration not stated): the GI50 in [1], in assay [2], in [3], in [4], in assay [5] and in [6] was > 100 µM (inactive) each time. Besides, the GI50 in [8], in assay [9], in assay [10], in assay [11], in assay [12] and in assay [13] was > 100 µM (inactive) in each case. In addition, the GI50 in assay [15] and in assay [14] was > 100 µM (inactive) each time.
Take `CC(=O)OCCOCNC(=S)N/N=C/c1ccc2ccccc2n1`: the GI50 in assay [1] was > 100 µM (inactive); in [2], 33 µM (inactive); in assay [3] it was 23 µM (inactive); in assay [4], 54 µM (inactive); in assay [5] it was 32.7 µM (inactive); in assay [6], 42.2 µM (inactive). For the same molecule, the GI50 is 40.6 µM (inactive) in assay [8]; 14.1 µM (inactive) in [9]; 34.9 µM (inactive) in assay [10]; 44.6 µM (inactive) in [11]; 70.1 µM (inactive) in [12]; > 100 µM (inactive) in assay [13]. For the same molecule, the GI50 in assay [15] is 43.1 µM (inactive); in assay [14] it was 48 µM (inactive); in [16], 24.8 µM (inactive).
Take `C=CCC1[C@@H](C(C)(C)C(C(C)=O)C(=O)C(=O)OC)OC(C(C)(C)C)N1C(=O)OC` (some centres not stated): the GI50 was > 100 µM (inactive) in assay [1]; > 100 µM (inactive) in assay [2]; > 100 µM (inactive) in [3]; 49 µM (inactive) in assay [4]; > 100 µM (inactive) in [5]; 47.4 µM (inactive) in assay [6]. Further, the GI50 is 48.5 µM (inactive) in assay [7]; > 100 µM (inactive) in [8]; > 100 µM (inactive) in assay [9]; > 100 µM (inactive) in assay [10]; > 100 µM (inactive) in [11]; > 100 µM (inactive) in assay [12]. In addition, the GI50 in assay [13], in assay [15] and in assay [14] was > 100 µM (inactive) in each case.
Consider `CCN1CCC(O)(/C=C/c2ccc(Cl)cc2)C(C(=O)/C=C/c2ccc(Cl)cc2)C1` (configuration not stated), for which the GI50 in assay [1] was 17.3 µM (inactive); in assay [2], 25.4 µM (inactive); in [3], 33 µM (inactive); in assay [4], 22.7 µM (inactive); in assay [5], 43.9 µM (inactive); in assay [6], 3.63 µM (inactive). In addition, the GI50 in [8] was 18.6 µM (inactive); in assay [9], 28.4 µM (inactive); in assay [10], 30.4 µM (inactive); in assay [11] it was 20.6 µM (inactive); in assay [12], 21.6 µM (inactive); in [13], 69.3 µM (inactive). The GI50 in assay [15] was 23 µM (inactive); in [14], > 10 µM (inactive); in assay [16] it was 34.5 µM (inactive).
